Our source for the IC50 and Km values is publication PMC6769532 (International Journal of Molecular Sciences, 2019).

Data set [1] deals with T1, Riboflavin transporter 2 (RFVT2) (Homo sapiens, UniProt Q9HAB3).
T1 construct: gene SLC52A2; hRFVT2 carrying an N-terminal 6-Histidine tag
T1 sequence (Q9HAB3 1-445): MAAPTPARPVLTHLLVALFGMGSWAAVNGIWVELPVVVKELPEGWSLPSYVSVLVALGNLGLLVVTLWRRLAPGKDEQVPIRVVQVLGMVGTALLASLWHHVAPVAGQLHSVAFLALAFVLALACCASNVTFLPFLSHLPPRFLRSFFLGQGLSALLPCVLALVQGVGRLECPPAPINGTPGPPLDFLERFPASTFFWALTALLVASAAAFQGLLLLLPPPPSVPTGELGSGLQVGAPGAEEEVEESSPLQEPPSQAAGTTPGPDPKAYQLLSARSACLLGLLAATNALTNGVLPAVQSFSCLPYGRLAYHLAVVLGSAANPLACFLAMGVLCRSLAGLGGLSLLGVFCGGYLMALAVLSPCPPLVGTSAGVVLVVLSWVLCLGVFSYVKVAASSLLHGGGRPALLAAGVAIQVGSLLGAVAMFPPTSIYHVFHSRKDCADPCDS
Description: inhibition of [3H]riboflavin uptake in proteoliposomes with purified recombinant RFVT2, dose-response. The class given is biochemical.

Substrate in the data set “purified protein”: Cc1cc2nc3c(=O)[nH]c(=O)nc-3n(C[C@H](O)[C@H](O)[C@H](O)CO)c2cc1C
Description: purified protein.

On to `Cc1cc2nc3c(=O)[nH]c(=O)nc-3n(C[C@H](O)[C@H](O)[C@H](O)COP(=O)(O)O)c2cc1C` [FMN], for which the IC50 (in general, the point on the concentration scale where inhibition reaches its midpoint) in data set [1] is 3.3 ± 0.8 µM.

B1: Riboflavin transporter 2 (RFVT2) (Homo sapiens) (protein)
chain: T1 sequence (Q9HAB3 1-445)
B1: in “purified protein”, the Km (commonly the substrate concentration at which the rate is half of its maximum) turned out to be 0.26 ± 0.07 µM.
